Test system: microtubules
Assay: Time-lapse second-harmonic generation imaging of retinal nerve fibers following treatment with nocodazole
Parameters: species or system rat
Details: retinal nerve fiber layer of retinal flat-mount; perfusion with medium containing nocodazole and 0.4% DMSO; treatment period 90 minutes
Procedure: Rat retinal flat-mounts were prepared from euthanized rats. The eyes were enucleated. A circumferential incision was made around the limbus and the cornea, lens, and vitreous humor were removed. Several radial cuts were made in the eye cup. The retina was isolated from the retinal pigment epithelium and the sclera and transferred to buffered Ames' medium (Sigma-Aldrich), which was bubbled with 95% oxygen and 5% carbon dioxide, and maintained at 34° C. and pH 7.4. The sample was transferred to a perfusion chamber with a transparent bottom (Warner Instruments) within 15 minutes after euthanasia. The retina was placed on the microscope stage with the retinal nerve fiber layer side up. The speed of laminar flow was approximate 1 mL per min.
Imaging: Simultaneous second-harmonic generation microscopy and two-photon excitation fluorescence microscopy were performed to image the fresh retina. The excitation wavelength utilized short pulses from a mode-locked Ti: Sapphire laser source with a duration of 100 fs at 80-MHz repetition rate. The excitation wavelength was 785 nm, except for the experiments where two excitation wavelengths at 785 and 880 nm are compared. […]
Fluorescence was detected in the backward beam path, which included a set of spectral filters (Chroma Technology), and photomultiplier tube (PMT) detectors (Hamamatsu). […]

COC(=O)Nc1nc2ccc(C(=O)c3cccs3)cc2[nH]1 [nocodazole]
intensity of microtubule second-harmonic generation signal: significantly reduced
